Laboratory results taken from article PMC7356157, “Shorter Antibacterial Peptide Having High Selectivity for E. coli Membranes and Low Potential for Inducing Resistance” (Microorganisms, 2020).
Where two headings read alike, the source gives them in different places. No end group written: not given here.

Experiments:
E. coli ATCC 25922 [1] = assay type: cell-based
E. coli 25922 = assay: Antibacterial activity in the presence of human sera; assay type: cell-based; settings: peptide diluted in fresh human sera (100%), then inoculum in MHB ~5 × 10^5 CFU/mL, 18 h, 37 °C
Description: The second assay involved peptide dilution in fresh human sera (100%) pre-incubated for 6 h at 37 °C in a humid chamber before putting them in contact with the bacterial inoculum diluted in MHB (~5 × 10^5 CFU/mL). The assay was incubated and read as mentioned in the microdilution section.

P. aeruginosa 27853 = assay: MIC by broth microdilution; assay type: cell-based; settings: MHB, 18 h, 37 °C
E. coli [2] = system: E. coli
Description: (§5) The checkerboard method was used for evaluating peptide antibacterial activity in combination with antibiotics [43]. […] Absorbance was measured at 620 nm and individual peptide and antibiotic MIC and combined MIC were obtained. […] The fractional inhibitory concentration index (FICI) was then calculated as the sum of peptide FIC + antibiotic FIC. A ≤ 0.5 FICI indicated synergy, 0.5 to ≤4 FICI indifference, and >4 FICI antagonism [45].
(§6) The results were interpreted by taking the lowest checkerboard FIC index (previously reported method 3) [44].

[3] = system: human red blood cells (hRBC); assay: Haemolytic activity (MHC); assay type: cell-based; settings: 5% v/v hRBC in 1X PBS, 200–0.39 µM, 1 h, 37 °C, absorbance 560 nm
Description: A haemolytic activity assay was used for determining whether peptides acted on hRBC membrane by calculating the minimum haemolytic concentration (MHC). Briefly, 100 µL serial dilutions of peptides were incubated in a 96-well plate with an equal volume of a fresh hRBC suspension at 5% v/v in 1X PBS (200–0.39 µM final peptide concentrations). The samples were spun at 1000× g for 5 min after having been incubated at 37 °C for 1 h and a Multiskan spectrometer (Thermo Fisher) was used for measuring 100 µL supernatant absorbance at 560 nm. Treated hRBC absorbance 0.1% Triton X-100 or 100% haemolysis was used as positive control.

E. coli [4] = system: E. coli; remark: listed apart in the source
Description: as §5, §6

E. coli ATCC 11775 [5] = assay type: cell-based; settings: broth microdilution
E. coli 35218 = assay type: cell-based
Description: (§1) Bactericidal activity was evaluated by sowing an aliquot of Luria Bertani agar (LBA) in the wells where no growth had been detected in the MIC assay.

[6] = system: E. coli N°40 (clinical isolate); settings: clinical isolate from blood, broth microdilution
Description: (§2) The standard broth microdilution method was used for determining the peptides’ MIC [41]. […] Bacteria in Müller–Hinton broth (MHB) were used as negative control. […] The MIC was determined as the lowest peptide concentration at which bacterial growth was not detected.
(§3) Approximately 50 bacterial samples were then collected from E. coli-infected patients for evaluating activity of the peptides against some clinical isolates. These samples were identified and biochemically and metabolically characterised using the VITEK-2 equipment. Isolates were profiled regarding their resistance or susceptibility to a panel of conventionally used antibiotics.

[7] = system: E. coli N°44 (clinical isolate); settings: clinical isolate from blood, ESBL (+), broth microdilution
Description: as §2, §3

[8] = system: E. coli N°4 (clinical isolate); settings: clinical isolate from urine, broth microdilution
Description: as §2, §3

E. coli ATCC 25922 [9] = assay: Bactericidal activity (MBC); assay type: cell-based; settings: aliquots of no-growth MIC wells on LBA, 18 h, 37 °C; kills 99.9%
Description: as §1

E. coli ML35 43827 [10] = assay: Bactericidal activity (MBC); assay type: cell-based
Description: as §1

E. coli ATCC 11775 [11] = assay: Bactericidal activity (MBC); assay type: cell-based
Description: as §1

[12] = system: E. coli N°40 (clinical isolate); assay type: cell-based
Description: as §1
(§4) Approximately 50 bacterial samples were then collected from E. coli-infected patients for evaluating activity of the peptides against some clinical isolates. These samples were identified and biochemically and metabolically characterised using the VITEK-2 equipment. Isolates were profiled regarding their resistance or susceptibility to a panel of conventionally used antibiotics. Three E. coli isolates having different resistance profiles were then selected following such characterisation (Appendix A): • Isolate 4 (from urine): extended spectrum beta-lactamase (ESBL) (-), resistant to ampicillin, quinolones and co-trimoxazole. • Isolate 40 (from blood): ESBL (-), resistant to ampicillin, 1st-generation cephalosporins and co-trimoxazole. • Isolate 44 (from blood): ESBL (+), resistant to aminoglycosides, quinolones, β-lactams (including 1st-, 3rd- and 4th-generation cephalosporins).

[13] = system: E. coli N°44 (clinical isolate); assay type: cell-based
Description: as §1, §4

E. coli ML35 43827 [14] = assay type: cell-based; settings: broth microdilution
[15] = system: E. coli 35218 (ampicillin-resistant ATCC 35218 strain); assay type: cell-based; settings: broth microdilution

For KKMKKALQYIKLLK-NH2 [Peptide 35409-13], the MIC E. coli 25922 (E. coli ATCC 25922 [1]; broth microdilution, MHB, ~5 × 10^5 CFU/mL, 18 h, 37 °C, OD 620 nm, 100 to 0.2 µM) was 50 µM, the “MIC against E. coli 25922, MHB” value (E. coli ATCC 25922 [1]; no serum) was 50 µM and the “MIC against E. coli 25922, Serum (without Pre-Incubation)” value (E. coli 25922) was 50 µM. The “MIC P. aeruginosa 27853” value (P. aeruginosa 27853) was >100 µM, the “FIC Index” value (E. coli [2]; peptide + gentamicin, lowest checkerboard FIC index (method 3)) was 0.75 and the “FIC P (peptide)” value (E. coli [2]; with gentamicin) was 0.25. For the same substance, the “MHC (minimum haemolytic concentration)” value [3] was >200 µM, the “FIC Index” value (E. coli [4]; peptide + ciprofloxacin, lowest checkerboard FIC index (method 3)) was 3 and the “FIC P (peptide)” value (E. coli [4]; with ciprofloxacin) was 1. The MIC E. coli 11775 (E. coli ATCC 11775 [5]) was 100 µM, the “MBC E. coli 35218” value (E. coli 35218) was 100 µM and the “MIC E. coli N°40” value [6] was 50 µM. For the same substance, the “MIC E. coli N°44” value [7] was 25 µM, the “MIC E. coli N°4” value [8] was >100 µM and the MBC E. coli 25922 (E. coli ATCC 25922 [9]) was 50 µM. For the same substance, the “MBC E. coli ML35 43827” value (E. coli ML35 43827 [10]) was 50 µM, the MBC E. coli 11775 (E. coli ATCC 11775 [11]) was > 100 µM and the “MBC E. coli N°40” value [12] was 100 µM. The “MBC E. coli N°44” value [13] was 50 µM, the “MIC E. coli ML35 43827” value (E. coli ML35 43827 [14]) was 25 µM and the “MIC E. coli 35218” value [15] was 25 µM.
